Several values for one entry are separate records, joined by “and”; a condition that tells them apart may be missing. Equal values may be shown once. A value given as a limit tells only on which side of the number the result lay.

Data set [1] relates to tear deficient dry eyes. The arrangement: species or system human. As to conditions: in vivo.
Data set [2] deals with patients with tear deficient dry eye. As to conditions: human, in vivo.
Data set [3] deals with normal subjects. Also on record: species or system human. The conditions noted are these: in vivo.
The test system of data set [4] is normal subjects. Also on record: species or system human. The conditions noted are these: in vivo. The source holds these as a separate data set.
Data set [5] deals with subjects regularly wearing SCL. Also on record: species or system human. As to conditions: in vivo.
Data set [6] deals with normal subjects. The arrangement: species or system human. As to conditions: in vivo. This is another data set of the same source.
In data set [7] the test system is tear deficient dry eyes. The arrangement: species or system human. As to conditions: in vivo. This is another data set of the same source.
The subject of data set [8] is patients with tear deficient dry eye. The conditions noted are these: in vivo.
In data set [9] the test system is normal subjects. As to conditions: in vivo.
In data set [10] the test system is subjects regularly wearing SCL. Also on record: species or system human. As to conditions: in vivo. This is another data set of the same source.
Data set [11] relates to patients with tear deficient dry eye. As to conditions: human, in vivo. The source holds these as a separate data set.
For data set [12], the system named is subjects regularly wearing SCL. Also on record: species or system human. As to conditions: in vivo. This is another data set of the same source.

With “Thiopropanal S-Oxide [lacrimatory component]”, in data set [1], the “extensibility of the tear lipid layer, Grade, mean value±standard deviation” value was 1.5±0.6. Further, in [2], the “degree of the stimulation, four-level category rating” value was “zero”; the “mean degree of the stimulation, four-level category rating” value was 1.8 and 1.7; the “time taken for stimulation to be felt (ST), mean value±standard deviation” value is 18.8 ± 9.3 s and 21.4 ± 9.8 s. Also, in [3], the “lacrimation in the contralateral non-exposed eye” value is on record as “lacrimation is induced in the contralateral non-exposed eye”, the “time after exposure by which ΔR reached the maximum” value is at most 1 min, the “ΔR (2 minutes)” value turned out to be 0.25±0.14 mm and the “ΔR (10 minutes)” value is listed as around 0 mm. In data set [3], the “ΔR in the contralateral non-exposed eye” value stood at 0.30 mm. In addition, the “reflex lacrimation by nasal exposure” value in data set [4] is reported as “no reflex lacrimation is induced”. Also, in data set [5], the “grades of specular image of the tears on SCL” value came out at 1.4±0.5. Also, in data set [6], the degree of stimulation is on record as 0; the “mean degree of the stimulation, four-level category rating” value is 3 and 1.5; the “mean time taken for the stimulation to be felt (ST)” value is 9.8 s and 14.5 s and 13.3 s; the “time taken for stimulation to be felt (ST), mean value±standard deviation” value amounted to 9.8 ± 1.5 s. For the same substance, the “radius of tear meniscus curvature R, mean value±standard deviation” value in data set [7] was 0.34±0.20 mm. Further, the “effects on the ocular surface epithelium” value in data set [8] is “No effects on the ocular surface epithelium was observed”. Also, the “adverse or lingering effects of the exposure on the ocular surface” value in data set [9] was “not found”. The “R (radius of tear meniscus curvature), mean value±standard deviation” value in data set [10] is listed as 0.54±0.14 mm. In addition, in data set [11], the “time after exposure at which ΔR was maximum” value came out at 2 min and the “ΔR (5 minutes)” value is given as around 0 mm. For the same substance, in data set [12], the NIBUT amounted to 9.1 ± 2.1 s.

The record behind these values is US20070282012A1 (priority 2004, published 2007).
